Measured values published in patent US20100248229A1, “INVITRO HUMAN EMBRYONIC MODEL AND A METHOD THEREOF” (Stempeutics Research Private Limited, priority 2007, published 2010).
Entries after “also recorded” stand apart in the source; their conditions may differ.

What was measured:
Assay type in all cases: cell-based, human
[1] = system: EBs derived from hESC line HUES9; experiment: Morphology of EBs under the microscope; conditions: 12.5 pg/ml for 48 hrs, day 4.5
Excerpt: (§1) Exposure of EBs to LPS: EBs at day-2.5 were exposed to 12.5 pg/ml of Endotoxin/lipopolysaccharide (LPS) (Sigma) for 48 hrs supplemented in culture medium. The normal and the endotoxin treated EBs were harvested on day 4.5. Post exposure, the control and endotoxin treated EBs were divided in two groups. One group was lysed in TRIZOL for RNA isolation and the other group was fixed in 4% paraformaldehyde for immunofluorescence. The expression profile of the ectoderm, endoderm, mesoderm and trophectoderm lineage markers like PHI-tubulin, GATA4, BMP2, Brachury and β-hCG etc. were studied by RT-PCR and Immunofluorescence. The expression of the LPS-inducible and pluripotency related DNA binding protein HMGB1 was also studied in both the control and treated EBs.
The HUES9 cells were harvested on day 5 and used for induction of EBs. The control EBs were collected on day 4.5 of culture (FIG. 4b). The LPS treated EBs were also collected on day 4.5 and were compared with the normal for morphological changes under the microscope (FIG. 4c). […] The normal and LPS treated EBs were screened for pluripotency and the germ lineage markers. […] HMGB1 mRNA expression was not found in the normal EBs (FIG. 5). […] Immunofluorescence localization of HMGB1 and the mesoderm marker Brachury was done to check the protein expressions. […]

[2] = system: EBs derived from hESC line HUES9; experiment: RT-PCR of germ lineage markers and HMGB1 in LPS-exposed HUES9 EBs
Excerpt: (§2) EBs derived from the human embryonic stem cell (hESC) line HUES9 were exposed to 12.5 pg/ml of LPS for 48 hrs. The expression profile of the ectoderm, endoderm, mesoderm and trophectoderm lineage markers like βIII-tubulin, GATA4, BMP2, Brachury and β-hCG were studied, by RT-PCR and Immunofluorescence. Inhibition of mesoderm induction was confirmed by RT-PCR analysis for hANP, cTnT, ABCG2, GATA2, BMP4 and HAND1. Osteoblast differentiation was induced in the EBs, and confirmed by von Kosa and Alizarin red staining. A comet assay was also done to assess the degree of apoptosis in these EBs.
as §1
RT-PCR: Total RNA from cells was isolated using TRIZOL-LS Reagent (Invitrogen) as per the manufacturer's protocol. Complementary DNA was synthesized using the SuperScript III First-Strand Synthesis System (Invitrogen) as per the manufacturer's instructions. Polymerase Chain Reaction (PCR) was carried out using 1U Tag DNA Polymerase (Sigma) and MgCl2 to a final concentration of 1.5 mM in a total volume of 25 μl/reaction. β-actin and GAPDH were used as the housekeeping controls. PCR cycles consisted of an initial denaturation at 95° C. for 5 minutes followed by 35 amplification cycles of denaturation at 94° C. for 45 seconds, annealing for 45 seconds, and extension at 72° C. for 45 seconds and final extension at 72° C. for 10 minutes.

EBs = experiment: Differentiation of EBs into tissues of mesoderm origin / osteoblast differentiation (von Kossa, Alizarin Red); conditions: for osteoblast differentiation (mineralization by Alizarin Red and von Kossa staining): 15 days of differentiation
Excerpt: The EBs were used to direct their differentiation into tissues of the ectoderm (nerve, skin), endoderm (pancreas, lungs), mesoderm (bone, blood, cardiomyocytes) and trophectoderm lineages (placenta) using known and published methods (Bader et al., 2000; Buttery et al., 2001; Lumelsky et al., 2001; Lee et al; 2000; Schuliner et al., 2001). A description of the methods used for differentiation of hESC to various tissues of the ectoderm, endoderm, mesoderm and trophectoderm lineages can be found in Hyslop et al. (2005). The ability of the compound/drug to inhibit the differentiation of EBs into these tissues of any particular type will indicate the possibility of developmental defect induced by the drug.
Endotoxins/LPS silenced the expression of mesoderm specific genes in the EBs. […] To confirm this effect the LPS exposed EBs were directed towards tissues of mesoderm origin like cardiomyocytes, blood or bone. […] This indicates the possibility of defects in the blood, bone or heart formation as a result of endotoxin exposure during fetal development.
as §2
Osteoblast differentiation: To assess the differentiating potential of EBs towards tissues of mesoderm origin, embryoid bodies were produced and exposed to LPS as described above. The normal and LPS treated EBs, 30 each, were subjected to osteoblast differentiation from day 5.5 onwards. To stimulate differentiation into osteogenic cells, ES medium containing 10^−8 M Dexamethasone, 50 μg/ml L-ascorbic acid and 5 mM Sodium-beta-glycophosphate was used. The medium was changed every 2-3 days and the differentiation was continued upto 15 days. The osteoblast differentiation was characterized by identifying mineralized areas using von Kossa and Alizarin Red staining. These were visualized and acquired using a Nikon Eclipse 90i microscope (Nikon Corporation, Japan).

[3] = 12.5 pg/ml for 48 hrs, EBs harvested day 4.5
[4] = EBs pre-exposed to 12.5 pg/ml for 48 hrs

lipopolysaccharide [LPS]
morphology (shape, size or numbers) of treated vs normal EBs [1]: did not show any visible morphological differences | expression of mesoderm markers (Brachury, BMP2, hANP, cTnT, ABCG2, GATA2, BMP4, HAND1) ([2]; 12.5 pg/ml for 48 hrs): no expression; also recorded: selectively silenced; also recorded: specific silencing | mRNA expression of HMGB1, βIII-tubulin, GATA4 and β-hCG [2, 3]: positive mRNA expression | mRNA expression of mesoderm markers BMP4, GATA2, ABCG2, cTnT, hANP and HAND1 [2, 3]: absence of mRNA expressions | mRNA expression of mesoderm markers Brachury and BMP2 [2, 3]: no mRNA expressions | HMGB1 expression in EBs ([2]; 12.5 pg/ml for 48 hrs, not expressed in normal EBs): positive or induced expression; also recorded: induced | functional mesoderm formation in EBs ([2]; exposure for 48 hrs): inhibited | efficiency for attachment and proliferation during induction of osteogenic differentiation, treated vs control EBs (EBs; [4]): no differences were found | osteoblast differentiation (mineralization by Alizarin Red and von Kossa staining) (EBs; [4]): failed to differentiate into functional osteoblasts; also recorded: failed to undergo osteoblast differentiation | osteoblast differentiation (mineralization by Alizarin Red and von Kossa staining) (EBs; EBs pre-exposed to 12.5 pg/ml for 48 hrs, listed as lipopolysaccharides): absence of mineralization | differentiation of exposed EBs into tissues of mesoderm origin (cardiomyocytes, blood or bone) (EBs; LPS exposed EBs): failure to differentiate
